According to patent US20250049972A1, “METHOD OF DETECTING PROSTATE CANCER IN A HUMAN SUBJECT USING A Cu 64 PSMA I&T INJECTION” (Curium US LLC, priority 2023, published 2025):

Columns and labels:
[1] = tested on: prostate cancer lesions; assay: Phase 2 PET/CT imaging: CLR, CDR and per patient sensitivity/specificity vs Composite Reference Standard, 3 blinded readers; type: in vivo, human; conditions: for Average Patient CDR: Average Correct Detection Rate (Standard Deviation) / Correct Localization Rate, region level / Number of Lesions Correctly Identified: IME Population; for Average Patient CDR: Average Correct Detection Rate (Standard Deviation) / Correct Localization Rate, region level: Phase 2; for Correct Localization Rate (region level CLR) / Number of Segments Correctly Identified / Pa Patient Specificity: Correct Patient Detection Rate / Pet Patient Sensitivity: Correct Patient Detection Rate: ITI Population; for Correct Localization Rate (region level CLR): 7-9 mCi; for Number of Lesions Correctly Identified: of 30 lesions truth; for Number of Segments Correctly Identified: of 30 segments truth
Protocol: A study was conducted to evaluate the use of Cu-64 PSMA I&T injection in imaging human patients with recurrent metastatic prostate cancer. The primary objectives were to determine efficacy on region and patient level and to assess safety for use with humans. The secondary objective was to assess image quality or AIQ using CLR and CDR. The study had two co-primary endpoints. First, region-level CLR defined as the percentage of regions containing at least one true PET positive lesion, with exactly localized correspondence between PET/CT imaging and the Composite Reference Standard regardless of any co-existent false positive findings, within the same region, out of all regions containing at least one PET positive finding. Second, patient-level CDR defined as the percentage of patients who have at least one true PET positive lesion, with exactly localized correspondence between PET imaging and the Composite Reference Standard, regardless of any co-existent false positive findings, out of all patients who are scanned. Both endpoints were measured for 1 and 4 hours post injection using PET scans. The study was powered to detect a CLR (detection rate) of greater than 60%. A sample size of 26 patients has an 80% power of detecting a true sensitivity of 85%. Key inclusion criteria included histologically proven prostate adenocarcinoma, prior radical prostatectomy, radiation therapy with curative intent, disease recurrence based on defined rise in PSA, and at least one extra prostatic site of disease suspected based on prior imaging or diagnosed by biopsy. Patients were administered 7-9 mCi Cu-64 PSMA I&T injection and then PET and/or CT images were acquired for all patients starting at approximately […] and 4 hours±30 minutes post Cu-64 PSMA I&T injection. Indeed, the images were collected from an approximate range of 45 minutes to 4 hours and 30 minutes post injection for all patients. The PET and CT images were interpreted independently by three readers blinded to all patient information. Each patient study was assessed and scored for the detection of prostate cancer. Specifically, each reader categorized images as “Disease” or “No Disease” based only on tumor uptake of Cu-64 PSMA-I&T in each of the five regions: (1) prostate bed or prostate gland, (2) lymph nodes (pelvic), (3) lymph nodes (extra pelvic), (4) bone, and (5) viscera/soft tissue. Analysis of the reads were used for determination of the CLR and CDR by comparison to the Composite Reference Standard. The Composite Reference Standard was defined as local histopathology obtained within 60 days before or following Cu-64 PSMA I&T PET/CT, or, if histopathology was not available, anatomical correlation of conventional image findings (e.g., targeted MRI or CT or any FDA-approved PET PSMA agent) obtained within 60 days before or following Cu-64 PSMA I&T PET/CT. A statistical threshold (with a lower bound of the 95% confidence interval) of 60% was prespecified for both CLR and CDR endpoints. The Phase 2 portion of the study included a separate group of 26 patients with biochemical recurrent PC. The dose for the Phase 2 portion of the study was 9 mCi with an acceptable range of 7 to 9 mCi. PET/CT images were acquired for all patients at 1 hour (±15 minutes) and 4 hours (±0.5 hours) post injection. The PET/CT images were interpreted independently by 3 readers blinded to all patient information. Each patient was assessed and scored for the detection of prostate cancer lesions. Specifically, each reader categorized images as “Disease” or “No Disease” based only on tumor uptake of copper Cu-64 PSMA I&T in each of 5 regions: (1) prostate bed or prostate gland, (2) lymph nodes (pelvic), (3) lymph nodes (extra pelvic), (4) bone, and (5) viscera/soft tissue. Analysis of the reads was used for determination of the CLR and CDR for 1 hour and 4 hours post-injection imaging of copper Cu-64 PSMA I&T PET/CT by comparison to a composite reference standard collected for each enrolled patient. […]

[2] = Phase 2 diagnostic image quality, 3-point scale, independent readers; type: in vivo, human
Protocol: Diagnostic quality was assessed for all scans using a 3-point scale and then percentages for each category were summarized for each reader and time point. No formal hypothesis testing was performed.

[3] = all 3 readers at both 1 and 4 hours

## O=C(O)CC[C@H](NC(=O)N[C@@H](CCCCNC(=O)CCCCCCC(=O)NCCCC[C@@H](NC(=O)[C@@H](Cc1ccccc1)NC(=O)[C@@H](Cc1ccc(O)c(I)c1)NC(=O)CC[C@H](C(=O)O)N1CCN(CC(=O)O)CCN(CC(=O)O)CCN(CC(=O)O)CC1)C(=O)O)C(=O)O)C(=O)O [Cu-64 PSMA I&T, 64 Cu-(3S, 7S, 26R, 29R, 32R, 37R)-29-benzyl-32(4-hydroxy-3-iodobenzyl)-5, 13, 20, 28, 31, 34-hexaoxo-37-(4,7,10-tris(carboxymethyl)-1,4,7, 10-tetraazacyclododecan-1-yl)-4,6, 12, 21, 27, 30, 33-heptaazaheptatriacontane-1,3,7, 26, 37-pentacarboxylic acid, metal not drawn]
[1]; READER 1, 1 Hour Image
  Average Patient CDR: Average Correct Detection Rate (Standard Deviation): 84.21% (33.552%)
  Correct Localization Rate, region level: 86.67%
  Correct Localization Rate (region level CLR): 86.67%
  Number of Lesions Correctly Identified: 26
  Number of Segments Correctly Identified: 26
[1]; READER 1, 1 Hour image
  Pa Patient Specificity: Correct Patient Detection Rate: 100.00%
  Pet Patient Sensitivity: Correct Patient Detection Rate: 100.00%
[1]; READER 1, 4 Hour Image
  Average Patient CDR: Average Correct Detection Rate (Standard Deviation): 84.21% (33.552%)
  Correct Localization Rate, region level: 86.67%
  Pa Patient Specificity: Correct Patient Detection Rate: 100.00%
  Pet Patient Sensitivity: Correct Patient Detection Rate: 100.00%
  Correct Localization Rate (region level CLR): 86.67%
  Number of Lesions Correctly Identified: 26
  Number of Segments Correctly Identified: 26
[1]; READER 2, 1 Hour Image
  Average Patient CDR: Average Correct Detection Rate (Standard Deviation): 77.19% (38.172%)
  Correct Localization Rate, region level: 76.7%
  Pa Patient Specificity: Correct Patient Detection Rate: 100.00%
  Pet Patient Sensitivity: Correct Patient Detection Rate: 100.00%
  Correct Localization Rate (region level CLR): 76.67%
  Number of Lesions Correctly Identified: 23
  Number of Segments Correctly Identified: 26
[1]; READER 2, 4 Hour Image
  Average Patient CDR: Average Correct Detection Rate (Standard Deviation): 79.82% (37.916%)
  Correct Localization Rate, region level: 80.00%
  Pa Patient Specificity: Correct Patient Detection Rate: 100.00%
  Pet Patient Sensitivity: Correct Patient Detection Rate: 100.00%
  Correct Localization Rate (region level CLR): 80.00%
  Number of Lesions Correctly Identified: 24
  Number of Segments Correctly Identified: 24
[1]; READER 3, 1 Hour Image
  Average Patient CDR: Average Correct Detection Rate (Standard Deviation): 80.70% (35.252%)
  Correct Localization Rate, region level: 80.110%
  Pa Patient Specificity: Correct Patient Detection Rate: 100.00%
  Pet Patient Sensitivity: Correct Patient Detection Rate: 100.00%
  Correct Localization Rate (region level CLR): 80.00%
  Number of Lesions Correctly Identified: 24
  Number of Segments Correctly Identified: 24
[1]; READER 3, 4 Hour Image
  Average Patient CDR: Average Correct Detection Rate (Standard Deviation): 80.70% (35.252%)
  Correct Localization Rate, region level: 80.00%
  Pa Patient Specificity: Correct Patient Detection Rate: 100%
  Pet Patient Sensitivity: Correct Patient Detection Rate: 100.00%
  Correct Localization Rate (region level CLR): 80.00%
  Number of Lesions Correctly Identified: 24
  Number of Segments Correctly Identified: 24
[1]; [3]
  patient level CDR vs prespecified threshold: > 60%
  region level CLR vs prespecified threshold: > 60%
[1]; all patients, both 1 and 4 hour images
  correct patient detection rate (per patient sensitivity and specificity): 100.00%
[1]; of 26 patients
  patients with no lesions detected on the PET/CT scan: 7
  patients with positive lesions on the PET/CT scan: 19
[2]; Reader 1, 1 Hour Post Dose
  Image Quality Acceptable, patients (%): 26 (100.00%)
[2]; Reader 1, 4 Hours Post Dose
  Image Quality Acceptable, patients (%): 26 (100.00%)
[2]; Reader 2, 1 Hour Post Dose
  Image Quality Acceptable, patients (%): 24 (92.31%)
[2]; Reader 2, 4 Hours Post Dose
  Image Quality Acceptable, patients (%): 26 (100.00%)
[2]; Reader 3, 1 Hour Post Dose
  Image Quality Acceptable, patients (%): 26 (100.00%)
[2]; Reader 3, 4 Hours Post Dose
  Image Quality Acceptable, patients (%): 26 (100.00%)
[2]; at both 1 and 4 hours
  image quality as assessed by the independent readers: acceptable
